PMC3164901 (European journal of medicinal chemistry, 2011)
Structures can show the parent of a compound that is named as a salt. Values belong to the compound of their own block, whether it stands above or below them.

Legend:
[1] = target: recombinant human PED10A (Homo sapiens, UniProt Q9Y233); assay: PDE10A enzyme assay, [3H]cAMP scintillation proximity assay; format: biochemical
[2] = tested on: rats; details: ref [8]; cited from earlier work
[3] = tested on: rats; details: ref [8], cited from earlier work
[4] = tested on: rat; details: ref [23]; cited from earlier work
[5] = ref [24]; cited from earlier work
[6] = target: PDE3A (Homo sapiens, UniProt Q14432); assay: PDE3A enzyme assay, [3H]cAMP SPA; format: biochemical
[7] = target: PDE3B (Homo sapiens, UniProt Q13370); assay: PDE3B enzyme assay, [3H]cAMP SPA; format: biochemical
Sequence of PDE3B (Q13370 whole entry, species assumed): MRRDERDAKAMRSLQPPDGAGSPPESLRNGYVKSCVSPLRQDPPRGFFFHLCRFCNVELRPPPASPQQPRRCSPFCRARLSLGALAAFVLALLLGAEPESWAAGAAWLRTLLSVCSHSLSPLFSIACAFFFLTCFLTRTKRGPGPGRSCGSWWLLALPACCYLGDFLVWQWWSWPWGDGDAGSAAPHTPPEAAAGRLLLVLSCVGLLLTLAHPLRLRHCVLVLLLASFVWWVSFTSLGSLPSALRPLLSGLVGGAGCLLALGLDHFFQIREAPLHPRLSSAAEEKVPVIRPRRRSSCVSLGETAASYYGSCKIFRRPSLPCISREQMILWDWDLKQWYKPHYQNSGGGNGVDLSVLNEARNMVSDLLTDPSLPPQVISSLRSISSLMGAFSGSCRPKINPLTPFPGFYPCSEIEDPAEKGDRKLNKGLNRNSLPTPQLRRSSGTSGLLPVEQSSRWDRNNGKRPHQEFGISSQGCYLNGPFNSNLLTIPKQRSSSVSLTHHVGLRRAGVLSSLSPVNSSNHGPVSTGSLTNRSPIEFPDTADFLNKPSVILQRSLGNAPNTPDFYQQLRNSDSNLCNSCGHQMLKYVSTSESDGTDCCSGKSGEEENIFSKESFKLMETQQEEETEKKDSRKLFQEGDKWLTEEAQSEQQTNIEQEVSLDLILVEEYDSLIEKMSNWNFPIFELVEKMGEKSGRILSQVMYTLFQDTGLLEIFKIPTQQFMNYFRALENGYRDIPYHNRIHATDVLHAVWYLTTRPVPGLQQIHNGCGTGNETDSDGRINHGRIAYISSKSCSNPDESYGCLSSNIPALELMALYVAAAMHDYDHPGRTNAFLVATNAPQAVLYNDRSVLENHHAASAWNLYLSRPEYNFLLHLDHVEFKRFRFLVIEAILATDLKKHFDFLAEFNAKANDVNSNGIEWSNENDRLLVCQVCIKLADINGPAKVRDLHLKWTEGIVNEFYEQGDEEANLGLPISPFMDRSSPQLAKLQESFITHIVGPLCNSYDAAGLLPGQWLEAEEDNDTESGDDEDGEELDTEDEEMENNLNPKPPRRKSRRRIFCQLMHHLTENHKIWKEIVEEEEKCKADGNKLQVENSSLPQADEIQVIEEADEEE

Sequence of recombinant human PED10A (Q9Y233 whole entry): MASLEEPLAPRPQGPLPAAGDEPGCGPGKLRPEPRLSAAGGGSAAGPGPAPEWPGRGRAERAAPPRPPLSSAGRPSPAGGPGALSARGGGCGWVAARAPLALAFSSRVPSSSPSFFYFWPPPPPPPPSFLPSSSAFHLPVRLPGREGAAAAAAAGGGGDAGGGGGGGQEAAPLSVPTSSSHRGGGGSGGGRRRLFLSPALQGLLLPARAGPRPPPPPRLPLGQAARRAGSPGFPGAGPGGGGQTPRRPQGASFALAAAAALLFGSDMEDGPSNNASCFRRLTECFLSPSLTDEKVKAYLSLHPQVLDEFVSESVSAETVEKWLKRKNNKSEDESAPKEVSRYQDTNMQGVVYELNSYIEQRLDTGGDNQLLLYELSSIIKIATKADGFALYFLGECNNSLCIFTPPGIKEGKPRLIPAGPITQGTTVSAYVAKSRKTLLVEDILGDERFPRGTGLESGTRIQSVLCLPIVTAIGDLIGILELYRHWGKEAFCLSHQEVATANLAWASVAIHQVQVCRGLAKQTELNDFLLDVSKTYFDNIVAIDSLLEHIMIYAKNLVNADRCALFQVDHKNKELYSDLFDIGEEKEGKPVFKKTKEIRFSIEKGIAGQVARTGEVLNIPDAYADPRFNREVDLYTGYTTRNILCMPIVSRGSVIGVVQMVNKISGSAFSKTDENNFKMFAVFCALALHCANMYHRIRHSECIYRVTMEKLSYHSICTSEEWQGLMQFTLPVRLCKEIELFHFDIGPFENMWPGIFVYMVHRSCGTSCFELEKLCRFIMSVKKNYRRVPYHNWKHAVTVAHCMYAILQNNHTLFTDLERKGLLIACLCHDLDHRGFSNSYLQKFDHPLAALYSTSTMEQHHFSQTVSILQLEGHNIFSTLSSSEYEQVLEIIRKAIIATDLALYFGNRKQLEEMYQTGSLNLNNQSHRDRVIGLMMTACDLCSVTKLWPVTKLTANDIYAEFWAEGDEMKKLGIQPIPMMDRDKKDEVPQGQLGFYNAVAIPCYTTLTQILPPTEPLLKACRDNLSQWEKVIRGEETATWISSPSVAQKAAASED
Sequence of PDE3A (Q14432 whole entry, species assumed): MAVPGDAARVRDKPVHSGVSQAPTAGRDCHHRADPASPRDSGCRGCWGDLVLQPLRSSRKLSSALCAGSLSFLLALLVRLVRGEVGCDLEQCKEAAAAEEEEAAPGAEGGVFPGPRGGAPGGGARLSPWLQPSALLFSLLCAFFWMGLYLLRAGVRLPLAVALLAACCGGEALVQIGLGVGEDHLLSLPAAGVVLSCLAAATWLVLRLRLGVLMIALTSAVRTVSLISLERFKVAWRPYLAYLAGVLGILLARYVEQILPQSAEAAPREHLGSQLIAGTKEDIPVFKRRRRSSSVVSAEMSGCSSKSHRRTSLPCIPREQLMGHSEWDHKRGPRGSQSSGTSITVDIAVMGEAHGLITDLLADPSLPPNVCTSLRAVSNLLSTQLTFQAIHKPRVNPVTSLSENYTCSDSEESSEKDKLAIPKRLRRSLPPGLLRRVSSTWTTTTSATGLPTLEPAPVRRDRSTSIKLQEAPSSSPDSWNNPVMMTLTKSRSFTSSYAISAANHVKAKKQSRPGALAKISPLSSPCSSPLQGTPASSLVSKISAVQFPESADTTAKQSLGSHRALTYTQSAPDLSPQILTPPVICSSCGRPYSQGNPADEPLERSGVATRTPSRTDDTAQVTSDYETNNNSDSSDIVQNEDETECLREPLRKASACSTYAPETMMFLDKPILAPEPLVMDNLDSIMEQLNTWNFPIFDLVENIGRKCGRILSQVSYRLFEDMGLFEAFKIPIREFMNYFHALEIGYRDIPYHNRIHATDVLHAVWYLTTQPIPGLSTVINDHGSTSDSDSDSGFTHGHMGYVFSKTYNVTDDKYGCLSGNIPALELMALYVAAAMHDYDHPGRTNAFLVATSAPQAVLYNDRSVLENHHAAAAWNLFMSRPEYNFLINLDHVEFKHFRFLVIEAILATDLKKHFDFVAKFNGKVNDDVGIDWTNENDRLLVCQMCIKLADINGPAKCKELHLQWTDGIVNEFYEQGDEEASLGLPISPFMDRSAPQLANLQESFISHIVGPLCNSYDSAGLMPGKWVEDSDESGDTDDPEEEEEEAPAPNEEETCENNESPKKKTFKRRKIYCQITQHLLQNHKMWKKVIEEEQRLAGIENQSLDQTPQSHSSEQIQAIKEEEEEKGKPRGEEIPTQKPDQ

IC50 [1]: 262 ± 1.1 nM
Compound: COc1cc(Cc2nccc3cc(OC)c(OCCF)cc23)cc(OC)c1 [6l, 1-(3,5-Dimethoxybenzyl)-7-(2-fluoroethoxy)-6-methoxyisoquinoline oxalate]

increase of PDE10A affinity versus 8b ([1]; 4-fluoroethoxy extended to 4-(2-(2-fluoroethoxy))ethoxy): 2 fold
Compound: COc1cc2ccnc(Cc3ccc(OCCOCCF)c(OC)c3)c2cc1OC.O=C(O)C(=O)O [8c, 1-(4-(2-(2-Fluoroethoxy)ethoxy)-3-methoxybenzyl)-6,7-dimethoxyisoquinoline oxalate]

Compound: Cn1cc(-c2ccncc2)c(-c2ccc(OCc3ccc4ccccc4n3)cc2)n1 [MP-10]
hyperactivity induced by phenylcyclohexylpiperidine (PCP) and amphetamine [2]: able to reduce hyperactivity

Compound: COc1cc2ncnc(C3CC[C@H](Oc4cnc5ccccc5n4)C3)c2cc1OC (stereo partly shown) [PQ-10]
hyperactivity induced by phenylcyclohexylpiperidine (PCP) and amphetamine [2]: able to reduce hyperactivity

Compound: COc1ccc(Cc2nccc3cc(OC)c(OC)cc23)cc1OC [Papaverine, 1-(3,4-dimethoxybenzyl-6,7-dimethoxy)isoquinoline]
catalepsy on its own ([3]; compound alone): did not cause catalepsy on its own | effect on cataleptic effect of the D2 receptor antagonist haloperidol ([3]; with haloperidol): potentiated the cataleptic effect | efficacy in novel object recognition [4]: shown efficacy | in vivo metabolism [5]: rapid in vivo metabolism | hyperactivity induced by phenylcyclohexylpiperidine (PCP) and amphetamine [2]: able to reduce hyperactivity

Compound: FC(F)(F)Cn1cc(-c2ccncc2)c(-c2ccc(OCc3ccc4ccccc4n3)cc2)n1 [TP-10]
hyperactivity induced by phenylcyclohexylpiperidine (PCP) and amphetamine [2]: able to reduce hyperactivity

IC50 [6]: 3980 ± 510 nM | IC50 [1]: 48.8 ± 1.07 nM | IC50 [7]: 3100 ± 270 nM
Compound: COc1ccc(Cc2ncnc3cc(OC)c(OC)cc23)cc1 [compound 11, 6,7-Dimethoxy-4-(4-methoxybenzyl)quinazoline oxalate]
